The source of these data is patent US8513271B2, “Pyrimidine compounds as delta opioid receptor modulators” (Janssen Pharmaceutica, NV, priority 2009, dated 2013).

The EC50 is the concentration that produces a half-maximal response.

Like-named read-outs stand apart in the source and are kept apart here.

The target in the assay is T1, delta opioid receptor (Mus musculus, UniProt P32300).
T1 construct: NG108-15 cell membranes were purchased from Applied Cell Sciences (Rockville, Md.); host or cells: NG108-15 cell membranes
T1 sequence (P32300 whole entry): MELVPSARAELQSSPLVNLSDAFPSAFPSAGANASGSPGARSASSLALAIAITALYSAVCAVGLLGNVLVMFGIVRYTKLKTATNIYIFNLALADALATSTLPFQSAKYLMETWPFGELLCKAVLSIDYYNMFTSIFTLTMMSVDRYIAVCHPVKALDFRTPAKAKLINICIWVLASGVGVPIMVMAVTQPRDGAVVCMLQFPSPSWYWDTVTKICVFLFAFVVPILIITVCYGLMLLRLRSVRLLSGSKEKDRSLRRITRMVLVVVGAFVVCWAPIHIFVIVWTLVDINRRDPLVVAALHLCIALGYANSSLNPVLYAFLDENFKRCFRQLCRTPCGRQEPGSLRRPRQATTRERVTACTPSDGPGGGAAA
In words: [35S]GTPγS binding assay in NG108-15 cell membranes (delta opioid functional assay), 200 nM screen. As to conditions: NG108-15 cell membranes; for GTPγS δ-RelEfficacy @200 nM: 200 nM test compound, relative to calculated max of SNC80 dose response curve; for GTPγS δ-RelEfficacy @200 nM / EC50: averages if tested more than once; for GTPγS δ-opioid receptor Rel Efficacy: relative efficacy from dose response. The assay is classed as biochemical.

The mark [1] stands for this setting: GTPγS δ-opioid receptor EC50 (μM).
[2] abbreviates: read-out: GTPγS δ-opioid receptor EC50.

On to `Cc1ccc(Oc2nc(-c3cncc(C#N)c3)ncc2NC[C@@H]2CCCN2)cc1F` [Cpd 183], for which the “GTPγS δ-RelEfficacy @200 nM” value is listed as 0.723 and the “GTPγS δ-opioid receptor Rel Efficacy” value came out at 1.091. The molecule further returned an EC50 under setting [1] of 0.091 µM.
Take `Clc1cncc(-c2ncc(NC[C@@H]3CCCN3)c(Oc3ccccc3Cl)n2)c1` [Cpd 229]: the “GTPγS δ-RelEfficacy @200 nM” value was 0.715 and the “GTPγS δ-opioid receptor Rel Efficacy” value is reported as 0.890. In addition, under setting [1], the EC50 is 0.061 µM.
For `COc1ccc(Oc2nc(-c3cncc(C#N)c3)ncc2N2CC3CC(C2)N3)cc1` [Cpd 338], the “GTPγS δ-RelEfficacy @200 nM” value is 0.723 and the “GTPγS δ-opioid receptor Rel Efficacy” value is listed as 0.956. Besides, the EC50 under setting [2] is 0.197 µM.
`CC(=O)Nc1ccc(Oc2nc(-c3cncc(F)c3)ncc2NC[C@@H]2CCCN2)cc1` [Cpd 212]: the “GTPγS δ-opioid receptor Rel Efficacy” value came out at 0.994. The same molecule displayed an EC50 under setting [1] of 0.029 µM.
As to `COc1ccc(Oc2nc(-c3cncc(Cl)c3)ncc2NC[C@@H]2C[C@@H](F)CN2)cc1` [Cpd 194], the “GTPγS δ-RelEfficacy @200 nM” value was 0.665 and the “GTPγS δ-opioid receptor Rel Efficacy” value is 1.034. In addition, the EC50 under setting [1] was determined as 0.022 µM.
For `COc1ccc(Oc2nc(-c3cncc(C)c3)ncc2N[C@H]2CCNC2)cc1` [Cpd 257], the “GTPγS δ-opioid receptor Rel Efficacy” value is listed as 0.830. Moreover, under setting [1], a half-maximal effect (EC50) was put at 0.095 µM.
Regarding `Cc1cccc(Oc2nc(-c3cncc(C#N)c3)ncc2NC[C@@H]2CCCN2)c1` [Cpd 200], the “GTPγS δ-RelEfficacy @200 nM” value is listed as 0.289.
In the case of `Cc1ccc(Oc2nc(-c3cncc(F)c3)ncc2NC[C@@H]2CCCN2)cc1` [Cpd 178], the “GTPγS δ-RelEfficacy @200 nM” value is on record as 0.578 and the “GTPγS δ-opioid receptor Rel Efficacy” value was 1.239. Moreover, the EC50 under setting [2] came out at 0.3 µM.
For `CCc1ccc(Oc2nc(-c3cncc(C#N)c3)ncc2NC[C@@H]2C[C@@H](F)CN2)cc1` [Cpd 195], the “GTPγS δ-RelEfficacy @200 nM” value was 0.477 and the “GTPγS δ-opioid receptor Rel Efficacy” value was 1.119. Further, the EC50 under setting [2] worked out at 0.194 µM.
`Cc1ccc(Oc2nc(-c3cncc(F)c3)ncc2NC[C@@H]2CCCN2)c(F)c1F` [Cpd 191]: the “GTPγS δ-RelEfficacy @200 nM” value was 0.410.
Take `COc1ccc(Oc2nc(-c3cncc(C#N)c3)ncc2N2CCC(N)CC2)cc1` [Cpd 333]: the “GTPγS δ-RelEfficacy @200 nM” value is 0.664 and the “GTPγS δ-opioid receptor Rel Efficacy” value is 1.116. The EC50 under setting [2] worked out at 0.118 µM.
As to `Cc1ccc(Oc2nc(-c3cncc(Cl)c3)ncc2NC[C@@H]2CCCN2)cc1F` [Cpd 186], the “GTPγS δ-RelEfficacy @200 nM” value is 0.466 and the “GTPγS δ-opioid receptor Rel Efficacy” value came out at 1.113. The EC50 under setting [2] amounted to 0.331 µM.
Regarding `O=CNc1ccc(Oc2nc(-c3cncc(F)c3)ncc2NC[C@@H]2CCCN2)cc1` [Cpd 223], the “GTPγS δ-RelEfficacy @200 nM” value is given as 0.802 and the “GTPγS δ-opioid receptor Rel Efficacy” value was determined as 0.986. Further, under setting [2], the EC50 was found to be 0.152 µM.
The corresponding values for `CCc1ccc(Oc2nc(-c3cncc(C#N)c3)ncc2NC[C@@H]2CCCN2)cc1` [Cpd 179] are 0.601, 1.182 and 0.119 µM.
As for `CC(=O)Oc1cccc(Oc2nc(-c3cncc(C#N)c3)ncc2NC[C@@H]2CCCN2)c1` [Cpd 228], the “GTPγS δ-RelEfficacy @200 nM” value is on record as 1.039 and the “GTPγS δ-opioid receptor Rel Efficacy” value was determined as 1.082. Under setting [1], this molecule came in with an EC50 of 0.006 µM.
As to `COc1ccc(Oc2nc(-c3cncc(C#N)c3)ncc2NCC2CNC2)cc1` [Cpd 215], the “GTPγS δ-RelEfficacy @200 nM” value is given as 0.674 and the “GTPγS δ-opioid receptor Rel Efficacy” value is 1.002. Further, the EC50 under setting [2] was found to be 0.128 µM.
Taken in the same sequence, the figures for `Cc1ccccc1Oc1nc(-c2cncc(Cl)c2)ncc1NC[C@@H]1CCCN1` [Cpd 227] were 0.480, 1.093 and 0.246 µM.
Take `Cc1cccc(Oc2nc(-c3cncc(Cl)c3)ncc2NC[C@@H]2CCCN2)c1` [Cpd 201]: the “GTPγS δ-RelEfficacy @200 nM” value is 0.148.
In the case of `COc1ccc(Oc2nc(-c3cncc(OC)c3)ncc2NC[C@@H]2C[C@@H](O)CN2)cc1` [Cpd 273, 5-(S)-{[4-(4-Methoxy-phenoxy)-2-(5-methoxy-pyridin-3-yl)-pyrimidin-5-ylamino]-methyl}-pyrrolidin-3-(R)-ol], the “GTPγS δ-opioid receptor Rel Efficacy” value stood at 1.001. Under setting [1], this molecule returned an EC50 of 0.026 µM.
Consider `CCc1nc(C)c(CNc2cnc(-c3cncc(C#N)c3)nc2Oc2ccc(OC)cc2)[nH]1` [Cpd 287], for which the “GTPγS δ-RelEfficacy @200 nM” value is recorded as 0.640.
As to `COc1ccc(Oc2nc(-c3cncc(OC)c3)ncc2NC[C@H]2C[C@@H](O)CN2)cc1` [Cpd 274, 5-(R)-{[4-(4-Methoxy-phenoxy)-2-(5-methoxy-pyridin-3-yl)-pyrimidin-5-ylamino]-methyl}-pyrrolidin-3-(R)-ol], the “GTPγS δ-opioid receptor Rel Efficacy” value came to 0.863. Under setting [1], this molecule yielded an EC50 of 0.286 µM.
As to `COc1ccc(Oc2nc(-c3cncc(C#N)c3)ncc2N2CCNCC2)cc1` [Cpd 325], the “GTPγS δ-RelEfficacy @200 nM” value is 0.866 and the “GTPγS δ-opioid receptor Rel Efficacy” value is on record as 1.042. Besides, the EC50 under setting [1] was 0.011 µM.
Take `COCCOc1ccc(Oc2nc(-c3cncc(SC)c3)ncc2NC[C@@H]2CCCN2)cc1` [Cpd 241]: the “GTPγS δ-RelEfficacy @200 nM” value is given as 0.381.
Turning to `c1cncc(-c2ncc(N3CCNCC3)c(Oc3ccc(C4CC4)cc3)n2)c1` [Cpd 320], the “GTPγS δ-opioid receptor Rel Efficacy” value is listed as 0.918. For the same molecule, under setting [2], the EC50 was found to be 0.191 µM.
As to `Cc1cc(Oc2nc(-c3cncc(F)c3)ncc2NC[C@@H]2CCCN2)ccc1F` [Cpd 219], the “GTPγS δ-RelEfficacy @200 nM” value is recorded as 0.475. Under setting [2], the EC50 is above 1 µM.
Turning to `CS(=O)(=O)Nc1ccc(Oc2nc(-c3cncc(F)c3)ncc2NC[C@@H]2CCCN2)cc1` [Cpd 213, N-(4-{2-(5-Fluoro-pyridin-3-yl)-5-[(pyrrolidin-2-(S)-ylmethyl)-amino]-pyrimidin-4-yloxy}-phenyl)-methanesulfonamide], the “GTPγS δ-RelEfficacy @200 nM” value is 0.079.
With `COc1ccc(Oc2nc(-c3cncc(OC)c3)ncc2N[C@@H]2CCCNC2)cc1` [Cpd 246], the “GTPγS δ-opioid receptor Rel Efficacy” value stood at 1.043. Under setting [1], this molecule registered an EC50 of 0.078 µM.
As for `COc1ccc(Oc2nc(-c3cncc(C#N)c3)ncc2NCc2ncc[nH]2)cc1` [Cpd 284], the “GTPγS δ-RelEfficacy @200 nM” value was 0.600 and the “GTPγS δ-opioid receptor Rel Efficacy” value turned out to be 0.609. The same molecule gave an EC50 under setting [1] of 0.055 µM.
As for `COc1ccc(Oc2nc(-c3cncc(C)c3)ncc2N[C@@H]2CCCNC2)cc1` [Cpd 258], the “GTPγS δ-opioid receptor Rel Efficacy” value was 0.835. Under setting [1], this molecule yielded an EC50 of 0.075 µM.
With `COc1ccc(Oc2nc(-c3cccnc3)ncc2NC[C@@H]2CCCN2)cc1C` [Cpd 211], the “GTPγS δ-RelEfficacy @200 nM” value was 0.814 and the “GTPγS δ-opioid receptor Rel Efficacy” value was found to be 1.050. Moreover, the EC50 under setting [2] was 0.106 µM.
With `COc1ccc(Oc2nc(-c3cncc(OC)c3)ncc2N2CCNCC2)cc1` [Cpd 342], the “GTPγS δ-opioid receptor Rel Efficacy” value is on record as 1.020. Also, a half-maximal response under setting [1] (EC50) required 0.0439 µM.
With `COc1ccc(Oc2nc(-c3cccnc3)ncc2N2CC[C@@H](N)C2)cc1` [Cpd 339], the “GTPγS δ-RelEfficacy @200 nM” value is 0.641.
For `CC[C@H]1CNCCN1c1cnc(-c2cncc(OC)c2)nc1Oc1ccc(OC)cc1` [Cpd 360], the “GTPγS δ-opioid receptor Rel Efficacy” value was 1.015. Under setting [1], this molecule came in with an EC50 of 0.013 µM.
On to `COc1ccc(Oc2nc(-c3cccnc3)ncc2N[C@@H]2CCCNC2)cc1` [Cpd 261], for which the “GTPγS δ-opioid receptor Rel Efficacy” value is recorded as 0.979. Under setting [1], this molecule came in with an EC50 of 0.241 µM.
Take `O=C(Nc1ccc(Oc2nc(-c3cccnc3)ncc2NC[C@@H]2CCCN2)cc1)OCc1ccccc1` [Cpd 177, (4-{2-Pyridin-3-yl-5-[(pyrrolidin-2-(S)-ylmethyl)-amino]-pyrimidin-4-yloxy}-phenyl)-carbamic acid benzyl ester]: the “GTPγS δ-RelEfficacy @200 nM” value is 0.511 and the “GTPγS δ-opioid receptor Rel Efficacy” value was 1.389. Further, the EC50 under setting [2] was determined as 0.255 µM.
In the case of `COc1ccc(Oc2nc(-c3cncc(C#N)c3)ncc2N2CCNC[C@H]2C)cc1` [Cpd 344], the “GTPγS δ-RelEfficacy @200 nM” value is 0.808 and the “GTPγS δ-opioid receptor Rel Efficacy” value amounted to 1.089. The molecule also registered an EC50 under setting [1] of 0.047 µM.
On to `Cc1ccc(Oc2nc(-c3cccnc3)ncc2NC[C@@H]2CCCN2)cc1F` [Cpd 187], for which the “GTPγS δ-RelEfficacy @200 nM” value is listed as 0.497 and the “GTPγS δ-opioid receptor Rel Efficacy” value is given as 1.104. In addition, the EC50 under setting [2] was 0.16 µM.
In the case of `COc1ccc(Oc2nc(-c3cncc(SC)c3)ncc2NC2CCCC(N)C2)cc1` (single isomer, unassigned) [Cpd 319], the “GTPγS δ-opioid receptor Rel Efficacy” value was found to be 0.871. In addition, a half-maximal response under setting [1] (EC50) required 0.112 µM.
`COc1ccc(Oc2nc(-c3cncc(OC)c3)ncc2NCc2cnc[nH]2)cc1` [Cpd 290]: the “GTPγS δ-RelEfficacy @200 nM” value is 0.398.
`COc1ccc(Oc2nc(-c3cncc(C)c3)ncc2NCc2cnc[nH]2)cc1` [Cpd 291]: the “GTPγS δ-RelEfficacy @200 nM” value is given as 0.303.
Turning to `Nc1ccc(Oc2nc(-c3cncc(F)c3)ncc2NC[C@@H]2CCCN2)cc1` [Cpd 198, [4-(4-Amino-phenoxy)-2-(5-fluoro-pyridin-3-yl)-pyrimidin-5-yl]-pyrrolidin-2-(S)-ylmethyl-amine], the “GTPγS δ-RelEfficacy @200 nM” value is listed as 0.513 and the “GTPγS δ-opioid receptor Rel Efficacy” value was determined as 1.050. The EC50 under setting [2] came out at 0.118 µM.
As to `Fc1cncc(-c2ncc(NC[C@@H]3CCCN3)c(Oc3ccc(C(F)(F)F)cc3)n2)c1` [Cpd 221], the “GTPγS δ-RelEfficacy @200 nM” value was 0.324.
In the case of `N#Cc1cncc(-c2ncc(NC[C@@H]3CCCN3)c(Oc3cccc(O)c3)n2)c1` [Cpd 231], the “GTPγS δ-RelEfficacy @200 nM” value was 1.159 and the “GTPγS δ-opioid receptor Rel Efficacy” value was 1.113. The molecule also had an EC50 under setting [1] of 0.005 µM.
For `COc1ccc(Oc2nc(-c3cccnc3)ncc2NCc2cnc[nH]2)cc1` [Cpd 288], the “GTPγS δ-RelEfficacy @200 nM” value is reported as 0.428.
For the molecule `COc1ccc(Oc2nc(-c3cncc(SC)c3)ncc2N2CC[C@@H](N)C2)cc1` [Cpd 348], the “GTPγS δ-opioid receptor Rel Efficacy” value is 0.689. Besides, the EC50 under setting [2] is 0.101 µM.
As for `COc1ccc(Oc2nc(-c3cncc(C#N)c3)ncc2N2CCC[C@@H]2CN)cc1` [Cpd 332], the “GTPγS δ-RelEfficacy @200 nM” value was 0.393.
